The values that follow come from patent US20070203066A1, “Compositions and methods for inhibiting cellular proliferation” (priority 2005, published 2007).

Usually pIC50 stands for −log10 of the IC50, conventionally taken in molar units.

pIC50: −log10 of the molar value. Non-standard residues stand in square brackets, D forms with d. Primed or numbered codes have the meaning given here. No end group written: not given here. Ida = iminodiacetic acid linker, its two carboxyls bind the Lys side-chain amines of two peptides, giving a homodimer; Ida(3) = iminodiacetic acid linker, Lys side-chain amines bound to its two carboxyl groups; Ida(4) = iminodiacetic acid linker (dimerization linker bound to lysine side chain); Ida″ = iminodiacetic acid linker bound to the Lys side-chain amine, forming a dimer; Ahx = NCCCCCC(=O)O

This assay deals with HUVECs. The format is cell-based. The note with it: HUVEC proliferation, bFGF at 10 ng/ml or VEGF at 5 ng/ml, 48 hours, BrdU incorporation; read-out: IC50 on HUVECs. The method, then: HUVECs were routinely cultured to near confluency in EGM media (Clontech, Mountain View, California). The cells were trypsinized and plated in a 96-well plate at 5,000 cells per well per 100 μl EBM supplemented with 2% FCS and antibiotics. The cells were allowed to adhere to the plate for at least 12 hours. Then, bFGF at 10 ng/ml or VEGF at 5 ng/ml, and various concentrations of peptide, were added to the wells. The cells were cultured for 48 hours at 37 ° C. in a 5% CO2 atmosphere. Cell proliferation was determined using a bromo-deoxyuridine (BrdU) incorporation method as described by the manufacturer. Inhibition of cell proliferation was assessed by BrdU incorporation.
A general note: Dividing cells build labelled thymidine or BrdU into new DNA.
Turning to “417 (Ac-RRRRRQAVAIKFV; not fully specified (residue 11); also: homodimer via Ida linker on Lys side chains, linker at 11 via Ida, other end not in the chain) [compound 417]”, the pIC50 is > 5.00.

Turning to “380 (Ac-ARRRRQEVAIYFK-NH2; not fully specified (residue 13); also: homodimer via Ida linker on Lys13 side chain, Ida amine Boc) [compound 380]”, the negative logarithm of the IC50 (pIC50) is > 5.00. With “316 (Ac-ARRRRQAVHIYFK(Ida)-NH2; also: homodimer via Ida linker on Lys13 side chain) [compound 316]”, the pIC50 was > 5.00. Turning to “364 (Ac-ARRRRQRVAEYFK-NH2; not fully specified (residue 13); also: homodimer of residues 1-13 via Ida linker on K13 side chain) [compound 364]”, the pIC50 is < 4.52. Consider “403 (Ac-GRRRRQAVAIYFK(Ida(3))-NH2; also: homodimer via Ida linker on Lys13 side chain, Boc on Ida amine) [compound 403]”, for which the pIC50 was > 5.00. Regarding “135 (KRKRKKQRVKI[Ahx][Ahx]IF; also: dimer: C-terminus of Phe15 of each chain bound to one amino group of a Lysine linker) [compound 135]”, the pIC50 was > 5.00. For KRKRKKQRVKIIF [compound 81] the value was 4.52 to 5.00; for “439 (Ac-RRRRPQAVAIYFK(Ida(4)); not fully specified (C-terminus); also: homodimer via Ida linker at K13) [compound 439]”, > 5.00.

As to “231 (XRRHRQRVRIIF; Xaa = Acylated Histidine; Dimeric peptide wherein the C terminus of Phe in position 12 of one peptide chain is covalently bound to one of the amino groups of a Lysine linker and Phe of the remaining peptide chain is covalently bound to the other amino group of the Lysine linker.) [compound 231]”, the pIC50 was > 5.00. Turning to “222 (XHHHHQAVAIIF; Xaa = Acylated Histidine; Dimeric peptide wherein the C terminus of Phe in position 12 of one peptide chain is covalently bound to one of the amino groups of a Lysine linker and Phe of the remaining peptide chain is covalently bound to the other amino group of the Lysine linker.) [compound 222]”, the pIC50 was < 4.52. For KKSSKRAKTQRRRKSFVKMYENIH [compound 8] the value was < 4.52; for “244 (Ac-RRRHRQHVRIIF; also: homodimer: C-termini of two chains bound to the two amines of a Lys linker) [compound 244]”, > 5.00; for KTKRKRKKQRVKIAYEEIFV [compound 15], > 5.00. For “511 (Ac-ARRRRFRVAIYFK; not fully specified (C-terminus); also: homodimer via Ida linker at Lys13 side chain) [compound 511]” the value was 4.52 to 5.00; for RVKIAYEEIFVQNM [compound 44], < 4.52. In the case of “401 (Ac-ERRRRQAVAIYFK(Ida(3))-NH2; also: homodimer via Ida linker on Lys13 side chain, Ida amine Boc) [compound 401]”, the pIC50 was > 5.00.

Regarding “494 (Ac-PRNRRQAVAIYFK(Ida″); not fully specified (C-terminus); also: homodimer via Ida linker on Lys13 side chain) [compound 494]”, the pIC50 is 4.52 to 5.00. For “352 (Ac-ARRRRQRVAIYIK-NH2; not fully specified (residue 13); also: homodimer of residues 1-13 via Ida linker on K13 side chain) [compound 352]” the value was > 5.00; for “348 (Ac-ARRRRQRVAIYHK-NH2; not fully specified (residue 13); also: homodimer of residues 1-13 via Ida linker on Lys13 side chain) [compound 348]”, < 4.52; for “404 (Ac-IRRRRQAVAIYFK(Ida(3))-NH2; also: homodimer via Ida linker on Lys13 side chain, Boc on Ida amine) [compound 404]”, > 5.00. Consider “382 (Ac-ARRRRQRVAIVFK-NH2; not fully specified (residue 13); also: homodimer via Ida linker on Lys13 side chain, Ida amine Boc) [compound 382]”, for which the negative-log IC50 (pIC50) is > 5.00.

For KTKRKRKKQRAKIIFVQNM [compound 113], the pIC50 is > 5.00. For RKRKKQRVKIAYEEIFV [compound 62] the value was < 4.52. Turning to “444 (Ac-RRRRYQAVAIYFK(Ida(4)); not fully specified (C-terminus); also: homodimer via Ida linker at K13) [compound 444]”, the pIC50 was > 5.00.

For the substance “420 (Ac-ARRRRQSVAIYFK; not fully specified (residue 13, C-terminus); also: homodimer of residues 1-13 via Ida linker on K13 side chain) [compound 420]”, the pIC50 was > 5.00. For the substance “486 (Ac-ARRRRQSVAIKF; not fully specified (residue 11); also: homodimer: Lys11 side chain bound to Ida linker (Boc on Ida N)) [compound 486]”, the pIC50 was > 5.00.

As to “326 (Ac-RRRRHQHVRIYFK; not fully specified (residue 13, C-terminus); also: homodimer via Ida linker on Lys13 side chain) [compound 326]”, the pIC50 was > 5.00. For “473 (Ac-PRRRLQAVAIYFK(Ida(3)); not fully specified (C-terminus); also: homodimer via Ida linker on Lys13 side chain) [compound 473]” the value was < 4.52; for “466 (Ac-AK(Ida(3))RRRQAVAIYF; also: homodimer via Ida linker on Lys2 side chain) [compound 466]”, < 4.52; for “415 (Ac-ARRRRQAVRIKFV; not fully specified (residue 11, bridges); also: homodimer of residues 1-13 via Ida linker on K11 side chain) [compound 415]”, > 5.00.

On to “397 (Ac-ARRRRQAVYIYFK; not fully specified (residue 13, C-terminus); also: homodimer of residues 1-13 via Ida linker at Lys13 side chain) [compound 397]”, for which the negative-log IC50 (pIC50) was > 5.00. For “393 (Ac-ARRRRQAVQIYFK; not fully specified (residue 13, C-terminus); also: homodimer of residues 1-13 via Ida linker at Lys13 side chain) [compound 393]” the value was > 5.00; for RKRKKQRVKIAYEEIF [compound 67], < 4.52.

“210 (Ac-RRRRAQRVAIIF; also: dimer: Phe C-termini joined via Lys linker) [compound 210]”: the negative-log IC50 (pIC50) is > 5.00.

Consider “396 (Ac-ARRRRQAVWIYFK; not fully specified (residue 13, C-terminus); also: homodimer of residues 1-13 via Ida linker at Lys13 side chain) [compound 396]”, for which the negative-log IC50 (pIC50) was > 5.00. On to “305 (Ac-RRRRRQAVRIIK(Ida)VN; also: homodimer via Ida linker on Lys12 side chain) [compound 305]”, for which the negative-log IC50 (pIC50) is > 5.00. For the substance “212 (Ac-AARRRQRVAIIF; also: dimer: Phe C-termini joined via Lys linker) [compound 212]”, the pIC50 is < 4.52. Take KTKRKRKKQRVKIAYEEAAVQNM [compound 47]: the pIC50 was < 4.52. For KTKRKRKKQRVKIIFVANM [compound 107] the value was > 5.00; for “449 (Ac-RRRRRAAAAAAAK(Ida(4)); not fully specified (C-terminus); also: homodimer via Ida linker at K13) [compound 449]”, < 4.52. “370 (Ac-ARRRRQRVAFYFK-NH2; not fully specified (residue 13); also: homodimer via Ida linker on Lys13 side chain, Boc on Ida amine) [compound 370]”: the pIC50 is > 5.00. Turning to TKRKRKKQRVKIIFV [compound 86], the pIC50 is 4.52 to 5.00. For KTKRKRKKQRVKI [compound 38] the value was < 4.52; for “209 (Ac-RRRRAQAVRIIF; also: dimer: Phe C-termini joined via Lys linker) [compound 209]”, > 5.00; for RKKQRVKIIFV [compound 89], < 4.52. For “491 (Ac-PRRRRQPVAIK(Ida″)F; also: homodimer via Ida linker on Lys11 side chain) [compound 491]” the value was 4.52 to 5.00. As for KTKRKRKKQRVKIIF [compound 79], the negative-log IC50 (pIC50) is < 4.52. Regarding KRKKQRVKIAYEEIF [compound 68], the pIC50 was < 4.52.

Consider KTARKRKKQRVKIIFVQNM [compound 121], for which the negative-log IC50 (pIC50) was > 5.00.
